For experiment [1], the target named is dihydrodipicolinate reductase (DHPR) (Escherichia coli, UniProt P04036). Nature of the experiment: DHPR kinetic assay, spectrophotometric oxidation of NADPH at 340 nm. The class given is biochemical. Here is the method:
For DHPR analysis, the compounds were screened using a kinetic protocol that spectrophotometrically evaluates oxidation of NADPH.
Stock solutions of each of the reagents were prepared in the following concentrations. Dilutions of the stock solutions were prepared prior to running the assay in the concentrations indicated below. DHPR was diluted in 10 mM HEPES at a pH of 7.4. DHPS (dihydrodipicolinate synthase) was not diluted and was stored in eppindorf tubes.
The L-ASA (L-aspartate semialdehyde) solution was prepared in the following manner. […] stock solution of ASA was prepared. 100 μl of the ASA stock solution was mixed with 150 μl of concentrated NaHCO3 and 375 μl of H2O. For use in the assay, 28.8 mM L-ASA was equal to 625 μl of the solution. The L-ASA stock Aft solution was kept at a temperature of −20° C. After dilution, the pH of the 28.8 mM solution was checked and maintained between 1 and 2.
The DHPS reaction was monitored at 340 nm prior to and after addition of the inhibitor to detect background reaction with the inhibitor. The solution for background detection was a 945 μl solution containing 0.1 HEPES (pH 7.8), 1 mM pyruvate, 6 μM NADPH, 40 μM L-ASA, and 7 μl of 1 mg/ml DHPS at 25° C. in the volumes provided above. The sample solution was then mixed and incubated for 10 minutes. Next, 500 nM solutions of the inhibitors and enough DMSO to provide a final DMSO concentration of 5% of the total assay volume were added. The solution was mixed and incubated for an additional 6 minutes.
In DHPR samples, 5 μl of the diluted DHPR enzyme were added. The sample was mixed for 20 seconds and then the reaction was run for 10 minutes. After a 50 second lag, the samples were read in a Cary spectrophotometer at 340 nm. Reading of the samples was continued until 300 seconds. Cuvette #1 contained the control reaction (no inhibitor), and cuvette #2 contained the positive control reaction in which Cibacron Blue at 2.58 μM was substituted for inhibitor to yield 70 to 80% inhibition. The substrate was kept at a level at least 10 times the Km. The final concentration of L-ASA was about 1 mM.

For experiment [2], the target named is T1, lactate dehydrogenase (LDH) (Oryctolagus cuniculus, UniProt P13491).
T1 construct: 10 μl of LDH from Rabbit Muscle; from tissue; host or cells: rabbit muscle
Description: LDH kinetic assay, spectrophotometric oxidation of NADH at 340 nm. The conditions noted are these: Cibacron Blue at 10.3 μM; read-out: inhibition of LDH (positive control). The class given is biochemical, Rabbit Muscle. On the procedure:
For LDH analysis, the compounds were screened using a kinetic protocol that spectrophotometrically evaluates oxidation of NADH.
(§1) Stock solutions of each of the reagents were prepared in the following concentrations. Dilutions of the stock solutions were prepared prior to running the assay in the concentrations indicated below.
The LDH reaction was monitored at 340 nm prior to and after addition of the inhibitor to detect background reaction with the inhibitor. Solutions of 100 μl of the inhibitors in DMSO were prepared to provide a final DMSO concentration of 5% of the total assay volume. These solutions were incubated for 6 minutes at 25° C. in a 990 μl of a solution containing 0.1 M HEPES, pH 7.4, 10 μM NADH, and 2.5 mM of pyruvate. The reaction was then initiated with 10 μl of LDH from Rabbit Muscle (0.5 μg/ml; 1:2000 dilution of 1.0 mg/ml). After the enzyme was added, the solution was mixed for 20 seconds, and the reaction was run for 10 minutes. After a 50 second lag, the samples were read in a Cary spectrophotometer at 340 nm. Reading of the samples was continued until 300 seconds. Cuvette #1 contained the control reaction (no inhibitor), and cuvette #2 contained the positive control reaction in which Cibacron Blue at 10.3 μM was substituted for inhibitor to yield 50 to 70% inhibition. The substrate was kept at a level at least 10 times the Km.

The target in experiment [3] is T2, alcohol dehydrogenase (ADH) (Saccharomyces cerevisiae, UniProt P00330).
T2 construct: 10 μl of ADH from Bakers Yeast; host or cells: baker's yeast
T2 sequence (P00330 1-348): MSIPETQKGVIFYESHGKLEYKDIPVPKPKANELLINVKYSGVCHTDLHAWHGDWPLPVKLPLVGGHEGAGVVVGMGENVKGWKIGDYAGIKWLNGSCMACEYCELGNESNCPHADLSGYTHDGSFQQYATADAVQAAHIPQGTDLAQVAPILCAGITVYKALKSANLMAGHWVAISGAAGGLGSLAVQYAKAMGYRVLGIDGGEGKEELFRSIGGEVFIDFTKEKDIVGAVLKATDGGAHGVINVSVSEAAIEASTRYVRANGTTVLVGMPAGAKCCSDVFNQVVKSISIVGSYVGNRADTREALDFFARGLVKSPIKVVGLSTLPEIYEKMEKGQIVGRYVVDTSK
Description: ADH kinetic assay, spectrophotometric reduction of NAD+ at 340 nm. The class given is biochemical, Bakers Yeast. The settings on record: Cibacron Blue at 15.5 μM; read-out: inhibition of ADH (positive control). On the procedure:
For ADH analysis, the compounds were screened using a kinetic protocol that spectrophotometrically evaluates reduction of NAD+.
as §1
The ADH reaction was monitored at 340 nm prior to and after addition of the inhibitor to detect background reaction with the inhibitor. Solutions of 100 μl of the inhibitors in DMSO were prepared to provide a final DMSO concentration of 5% of the total assay volume. These solutions were incubated for 6 minutes at 25° C. in a 990 μl of a solution containing 0.1 M HEPES, pH 8.0, 80 μM NAD+, and 130 mM of ethanol. The reaction was then initiated with 10 μl of ADH from Bakers Yeast ([…]; 1:400 dilution of 1.0 mg/ml). After the enzyme was added, the solution was mixed for 20 seconds, and the reaction was run for 10 minutes. After a 50 second lag, the samples were read in a Cary spectrophotometer at 340 nm. Reading of the samples was continued until 300 seconds. Cuvette #1 contained the control reaction (no inhibitor), and cuvette #2 contained the positive control reaction in which Cibacron Blue at 15.5 μM was substituted for inhibitor to yield 50 to 60% inhibition. The substrate was kept at a level at least 10 times the Km. The final concentration of […] was about 2.5 mM.
Where only a simple read was desired, as in the case of NAD+ concentration determination, 13 μl (10 M stock) of ethanol was used to drive the reaction, and 10 μl of pure enzyme (1 mg/ml) was used. NAD+was soluble at 2 mM, which allowed the concentration determination step to be skipped. In this situation, the procedure was as follows. All of the ingredients except for the enzyme were mixed together. The solution was mixed well and the absorbance at 340 nm read. The enzyme was added and read again at OD 340 after the absorbance stopped changing, generally 10 to 15 minutes after the enzyme was added.

Experiment [4] addresses 1-deoxy-D-xylulose-5-phosphate reductase (DOXPR) (Escherichia coli, UniProt P45568). Nature of the experiment: DOXPR kinetic assay, spectrophotometric oxidation of NADPH at 340 nm. The format is biochemical. The settings on record: Cibacron Blue at 10.32 μM; read-out: inhibition of DOXPR (positive control). On the procedure:
For DOXPR analysis, the compounds were screened using a kinetic protocol that spectrophotometrically evaluates oxidation of NADPH.
Stock solutions of each of the reagents were prepared in the following concentrations. Dilutions of the stock solutions were prepared prior to running the assay in the concentrations indicated below. DOXPR was diluted in 10 mM HEPES at a pH of 7.4.
The DOXPR reaction was monitored at 340 nm prior to and after addition of the inhibitor to detect background reaction with the inhibitor. Solutions of the inhibitors in DMSO were prepared to provide a final DMSO concentration of 5% of the total assay volume. These solutions were incubated for 6 minutes at 25° C. in a 990 μl of a solution containing 0.1 M HEPES, pH 7.4, 1 mM MnCl21.15 mM DOXP, and 8 μM NADPH. The oxidation reaction was then initiated with 10 μl of DOXP reductoisomerase (10 μg/ml). After the enzyme was added, the solution was mixed for 20 seconds, and the reaction was run for 10 minutes. After a 50 second lag, the samples were read in a Cary spectrophotometer at 340 nm. Reading of the samples was continued until 300 seconds. Cuvette #1 contained the control reaction (no inhibitor), and cuvette #2 contained the positive control reaction in which Cibacron Blue at 10.32 μM was substituted for inhibitor to yield 70 to 80% inhibition. The substrate was kept at a level at least 10 times the Km.

Setting [5] is: Example 14, common ligand mimics (FIG. 8), read-out: IC50 for DHPR.
The mark [6] stands for this setting: Example 15, bi-ligands (FIG. 9), read-out: IC50 value for dihydrodipicolinate reductase (DHPR).

Like-named read-outs stand apart in the source and are kept apart here. Some results are limits rather than exact numbers.

As usually defined, the IC50 is the point on the concentration scale where inhibition reaches its midpoint. The term inhibition denotes the drop in the measured response relative to a control, in per cent.

dihydrodipicolinate reductase (DHPR), sequence (P04036 whole entry): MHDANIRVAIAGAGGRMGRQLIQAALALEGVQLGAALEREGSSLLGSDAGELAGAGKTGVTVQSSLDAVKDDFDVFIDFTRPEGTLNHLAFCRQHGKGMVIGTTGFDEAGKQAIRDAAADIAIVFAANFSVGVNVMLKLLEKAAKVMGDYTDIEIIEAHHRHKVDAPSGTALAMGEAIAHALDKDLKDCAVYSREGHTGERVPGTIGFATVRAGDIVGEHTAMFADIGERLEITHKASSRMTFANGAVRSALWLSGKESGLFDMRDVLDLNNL
1-deoxy-D-xylulose-5-phosphate reductase (DOXPR), sequence (P45568 whole entry): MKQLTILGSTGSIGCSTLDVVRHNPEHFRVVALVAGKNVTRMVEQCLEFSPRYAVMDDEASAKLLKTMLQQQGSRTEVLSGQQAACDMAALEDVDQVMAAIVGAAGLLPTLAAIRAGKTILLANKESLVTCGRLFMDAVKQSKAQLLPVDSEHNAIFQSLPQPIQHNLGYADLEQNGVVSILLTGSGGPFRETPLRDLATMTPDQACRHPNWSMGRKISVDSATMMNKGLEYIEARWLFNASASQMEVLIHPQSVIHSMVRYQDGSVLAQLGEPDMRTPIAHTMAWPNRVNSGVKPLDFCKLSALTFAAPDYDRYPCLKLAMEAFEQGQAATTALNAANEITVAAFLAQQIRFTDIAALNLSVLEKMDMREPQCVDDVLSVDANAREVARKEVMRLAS

`COC(=O)c1ccc(-c2ccc(-c3nc4cc([N+](=O)[O-])ccc4[nH]3)o2)cc1` [4-[5-(5-nitro-1H-benzoimidazol-2-yl)-furan-2-yl]-benzoic acid methyl ester]: the half-maximal inhibitory concentration (IC50) in experiment [1] (setting [5]) is above 25 µM.
On to `Cc1cccc2[nH]c(-c3ccc(-c4ccc(C(=O)O)cc4)o3)nc12` [compound 6a, 4-[5-(4-methyl-1H-benzimidazol-2-yl)-furan-2-yl]-benzoic acid], for which the 50% inhibitory concentration (IC50) in experiment [1] (setting [5]) was above 100 µM.
For the compound `Cc1ccc2[nH]c(-c3ccc(-c4ccc(C(=O)O)cc4)o3)nc2c1` [compound 6c, 4-[5-(5-methyl-1-benzoimidazol-2-yl)furan-2-yl]-benzoic acid], the IC50 in experiment [1] (setting [5]) is above 60 µM.
On to `O=C(NCCSc1cc(C(=O)O)nc(C(=O)O)c1)c1ccc(-c2ccc(-c3nc4cc([N+](=O)[O-])ccc4[nH]3)o2)cc1` [compound 21a, 4-(2-{4-[5-(5-nitro-1H-benzoimidazol-2-yl)-furan-2-yl]-benzoylamino)-ethylsulfanyl)-pyridine-2,6-dicarboxylic acid], for which, in experiment [1] (setting [6]), the IC50 was around 0.758 µM.
As for `Nc1c(S(=O)(=O)O)cc(Nc2ccc(Nc3nc(Cl)nc(Nc4ccccc4S(=O)(=O)O)n3)c(S(=O)(=O)O)c2)c2c1C(=O)c1ccccc1C2=O` [Cibacron Blue, reference compound], the inhibition at 2.58 µM in experiment [1] (Cibacron Blue at 2.58 μM, read-out: inhibition of DHPR (positive control)) lay in the range of 70 to 80%. For the same compound, the inhibition at 10.3 µM in experiment [2] is 50 to 70%. Also, the inhibition at 15.5 µM in experiment [3] was 50 to 60%. The inhibition at 10.32 µM in experiment [4] lay within 70 to 80%.
Consider `O=C(NCCSc1cc(C(=O)O)nc(C(=O)O)c1)c1ccc(-c2ccc(-c3nc4ccccc4[nH]3)o2)cc1` [compound 21b, 4-(2-{4-[5-(1H-benzoimidazol-2-yl)-furan-2-yl]-benzoylamino}-ethylsulfanyl)-pyridine-2,6-dicarbolxylic acid], for which the IC50 in experiment [1] (setting [6]) is above 1.6 µM.

The record behind these values is patent US20030104473A1, “Common ligand mimics: benzimidazoles” (priority 2001, published 2003).
